Reference: patent US6822140B2, “Compositions and methods for fumonisin detoxification” (Pioneer Hi-Bred International, Inc., priority 1999, dated 2004)

Columns and labels:
[1] = test system: Maize coleoptiles; assay: Effect of FB1 and AP1 on maize coleoptiles (injury evaluation); design: key to Injury or lack thereof of maize coleoptiles: + = brown necrotic discoloration of coleoptile; − = no symptoms (same as water control); details: for Injury or lack thereof of maize coleoptiles: 2 days dark at 28° C. then 3 days light
Procedure: Maize coleoptiles from 4 day dark-grown germinated maize seeds were excised above the growing point and placed in 96-well microliter plates in the presence of 60 microliters of sterile distilled water containing FB1 or AP1 at approximately equimolar concentrations of 1.5, 0.5, 0.15, 0.05, 0.015, 0.005, 0.0015, or 0.0005 millimolar, along with water controls. After 2 days in the dark at 28° C. the coleoptiles were placed in the light and incubated another 3 days.

[2] = test system: maize callus; details: solid medium; Van Asch et al. (1992); cited from earlier work
[3] = test system: BMS cells; assay: Effect of FB1 and AP1 on growth of maize tissue cultured cells (Black Mexican Sweet, BMS); format: cell-based; details: for concentration at which growth of BMS cells was inhibited: 1 week, liquid culture, compared to water control wells
Procedure: FB1 or AP1 at various concentrations was added to suspensions of BMS cells growing in liquid culture medium in 96-well polystyrene plates. After 1 week the cell density in wells was observed under low power magnification and growth of toxin-treated wells was compared to control wells that received water. […] This represents an approximate 100-fold difference in toxicity to maize tissue-cultured cells. […] AP1 was not tested in that study, however.

[4] = test system: Lemna tissues; details: Vesonder et al. (1992); cited from earlier work
[5] = test system: tomato; details: Lamprecht et al. (1994); cited from earlier work

SMILES | Injury or lack thereof of maize coleoptiles ([1]; 1.5 mM) | Injury or lack thereof of maize coleoptiles ([1]; .0005 mM) | Injury or lack thereof of maize coleoptiles ([1]; .0015 mM) | Injury or lack thereof of maize coleoptiles ([1]; .005 mM) | Injury or lack thereof of maize coleoptiles ([1]; .05 mM) | Injury or lack thereof of maize coleoptiles ([1]; .15 mM) | Injury or lack thereof of maize coleoptiles ([1]; .5 mM) | concentration giving significant inhibition of maize callus [2] [nM] | concentration at which growth of BMS cells was inhibited [3] [nM] | Injury or lack thereof of maize coleoptiles ([1]; .015 mM) | difference in toxicity between FB1 and AP1 to maize coleoptiles ([1]; AP1 less toxic than FB1) [fold] | AP1 less toxic (than FB1) in Lemna tissues [4] | reduction in toxicity to tomato by AP1 versus FB1 [5] [fold] | difference in toxicity to maize tissue-cultured cells (FB1 vs AP1) ([3]; AP1 less toxic than FB1) [fold]
CCCC[C@@H](C)[C@@H](OC(=O)C[C@@H](CC(=O)O)C(=O)O)[C@H](C[C@@H](C)C[C@H](O)CCCC[C@@H](O)C[C@H](O)[C@H](C)N)OC(=O)C[C@@H](CC(=O)O)C(=O)O [FB1, fumonisin B1] | + | − | − | − | + | + | + | 1400 | 400 |  |  |  |  | 
CCCC[C@@H](C)[C@@H](O)[C@@H](O)C[C@@H](C)C[C@H](O)CCCC[C@@H](O)C[C@H](O)[C@H](C)N [AP1] | + | − | − | − | − | − | − |  | 40000 | − | ≥ 30 | approximately 40 fold | ~100 | ~100
